Source: patent US11691962B2 (eXIthera Pharmaceuticals, Inc., priority 2018, dated 2023)

How the values were obtained:
[1] = molecular target: Factor XIa (Homo sapiens (Human), UniProt P03951); test: Factor XIa enzyme inhibition assay (dose response, fluorogenic AMC substrate); type: biochemical; conditions: read-out: hFXIa IC50
Method in brief: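 Human FXIa at 0.25 nM final with 50 μM final PyroGlu-Pro-Arg-AMC in 20 mM Hepes pH 7.4, 150 mM NaCl, 0.02% Tween 20. Two-fold serial compound dilutions; fluorescence read every minute for 30 min at 30° C. IC50 from a four-parameter Hill fit.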

[2] = Caco-2 cell permeability assay; type: in vitro ADME, human; conditions: human, 37° C.; for Papp A→B at 60 min, 10 μM: Caco-2, apical to basolateral; for Papp B→A at 40 min, 10 μM: Caco-2, basolateral to apical
Method in brief: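 Caco-2 monolayers (days 21-25 post-seeding) received 10 μM compound in HBSS-MES pH 6.5 or HBSS-HEPES pH 7.4 (1% DMSO) at 37 °C, for 60 min A-B or 40 min B-A. Donor and receiver samples were quantified by HPLC-MS/MS (SRM), and Papp and recovery were calculated.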

[3] = Aqueous solubility in PBS by HPLC-UV/VIS; type: physicochemical; conditions: phosphate buffered saline, aqueous buffer, kinetic from dmso stock; PBS pH 7.4, 2% DMSO, 24 h at room temperature
Method in brief: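 Compound diluted to 200 μM in PBS pH 7.4 from DMSO stock (2% DMSO final), incubated 24 h at room temperature, then centrifuged. Supernatant analysed by HPLC-UV/VIS; solubility (μM) from principal-peak area versus a 200 μM calibration standard. Range approximately 0.5–200 μM.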

Sequence of Factor XIa (P03951 388-625): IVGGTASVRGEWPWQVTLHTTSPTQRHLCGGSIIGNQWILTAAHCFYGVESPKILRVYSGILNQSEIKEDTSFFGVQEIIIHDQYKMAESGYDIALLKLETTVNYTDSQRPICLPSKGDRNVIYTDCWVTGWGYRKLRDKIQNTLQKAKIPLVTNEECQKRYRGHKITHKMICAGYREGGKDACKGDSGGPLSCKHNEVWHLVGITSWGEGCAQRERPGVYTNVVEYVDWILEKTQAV
Sequence of Factor XIa (P03951 19-387 partner): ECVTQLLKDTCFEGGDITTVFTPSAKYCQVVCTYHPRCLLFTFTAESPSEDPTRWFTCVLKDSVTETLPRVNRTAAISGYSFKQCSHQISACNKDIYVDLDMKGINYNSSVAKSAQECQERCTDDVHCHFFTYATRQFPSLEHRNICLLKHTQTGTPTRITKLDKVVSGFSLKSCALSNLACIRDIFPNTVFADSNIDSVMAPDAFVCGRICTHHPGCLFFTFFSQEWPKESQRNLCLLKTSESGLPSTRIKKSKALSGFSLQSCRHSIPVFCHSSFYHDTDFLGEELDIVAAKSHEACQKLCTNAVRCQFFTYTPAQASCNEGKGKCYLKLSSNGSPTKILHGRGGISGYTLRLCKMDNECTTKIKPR

| Compound | IC50 [1] [nM] | Papp A→B at 60 min, 10 μM [2] [×10⁻⁶ cm/s] | Papp B→A at 40 min, 10 μM [2] [×10⁻⁶ cm/s] | solubility at 24 h [3] [µM] |
| --- | --- | --- | --- | --- |
| CC[C@@H](NC(=O)N1C(=O)[C@H](Cc2ccnc(N)c2)[C@H]1C(=O)N(C)c1ccnn1C)C1CCCCC1 [Compound 1-63, (2S,3R)-3-((2-aminopyridin-4-yl)methyl)-N2-(1-methyl-1H-pyrazol-5-yl)-N1-((R)-1-cyclohexylpropyl)-N2-methyl-4-oxoazetidine-1,2-dicarboxamide] | < 10 | 11 to 30 | 31 to 50 | > 100 |
| CC[C@@H](NC(=O)N1C(=O)[C@H](Cc2cc(C)nc(N)c2)[C@H]1C(=O)N(C)c1ccnn1C)C1CCCCC1 [Compound 1-67, (2S,3R)-3-((2-amino-6-methylpyridin-4-yl)methyl)-N2-(1-methyl-1H-pyrazol-5-yl)-N1-((R)-1-cyclohexylpropyl)-N2-methyl-4-oxoazetidine-1,2-dicarboxamide] | 10 to 100 | 11 to 30 | 31 to 50 | > 100 |
| CC[C@@H](NC(=O)N1C(=O)[C@H](Cc2ccnc(N)c2)[C@H]1C(=O)N(C)c1nccn1C)c1cccc(C)c1 [Compound 1-80, (2S,3R)-3-((2-aminopyridin-4-yl)methyl)-N2-(1-methyl-1H-imidazol-2-yl)-N1-((R)-1-(3-methylphenyl)propyl)-N2-methyl-4-oxoazetidine-1,2-dicarboxamide] | < 10 | < 10 | 31 to 50 | > 100 |
| CC[C@@H](NC(=O)N1C(=O)[C@H](Cc2ccnc(N)c2)[C@H]1C(=O)N(C)c1nccn1C)c1ccc(C)nc1 [Compound 1-81, (2S,3R)-3-((2-aminopyridin-4-yl)methyl)-N2-(1-methyl-1H-imidazol-2-yl)-N1-((R)-1-(6-methylpyridin-3-yl)propyl)-N2-methyl-4-oxoazetidine-1,2-dicarboxamide] | 10 to 100 | < 10 | < 10 | > 100 |
| CC[C@@H](NC(=O)N1C(=O)[C@H](Cc2ccnc(N)c2)[C@H]1C(=O)N(C)c1nccn1C)c1ccccc1Cl [Compound 1-83] | 10 to 100 | < 10 | > 50 | > 100 |
| CC[C@@H](NC(=O)N1C(=O)[C@H](Cc2ccnc(N)c2)[C@H]1C(=O)N(C)c1cnn(C)c1)c1ccccc1 [Compound 1-88, (2S,3R)-3-((2-aminopyridin-4-yl)methyl)-N2-(1-methyl-1H-pyrazol-4-yl)-N1-((R)-1-phenylpropyl)-N2-methyl-4-oxoazetidine-1,2-dicarboxamide] | < 10 | < 10 | 11 to 30 | > 100 |
| CC[C@@H](NC(=O)N1C(=O)[C@H](Cc2cc(C)nc(N)c2)[C@H]1C(=O)N(C)c1ccn(C)n1)c1cccc(Cl)c1 [Compound 1-89, (2S,3R)-3-((2-amino-6-methylpyridin-4-yl)methyl)-N2-(1-methyl-1H-pyrazol-3-yl)-N1-((R)-1-(3-chlorophenyl)propyl)-N2-methyl-4-oxoazetidine-1,2-dicarboxamide] | < 10 | < 10 | 11 to 30 | > 100 |
| CC[C@@H](NC(=O)N1C(=O)[C@H](Cc2ccnc(N)c2)[C@H]1C(=O)N(C)c1cn(C)cn1)c1ccccc1 [Compound 1-90, (2S,3R)-3-((2-aminopyridin-4-yl)methyl)-N2-(1-methyl-1H-imidazol-4-yl)-N1-((R)-1-phenylpropyl)-N2-methyl-4-oxoazetidine-1,2-dicarboxamide] | < 10 | < 10 | 11 to 30 | > 100 |
| CC[C@@H](NC(=O)N1C(=O)[C@H](Cc2ccnc(N)c2)[C@H]1C(=O)N(C)c1ccn(C)n1)c1cccc(Cl)c1 [Compound 1-91, (2S,3R)-3-((2-aminopyridin-4-yl)methyl)-N2-(1-methyl-1H-pyrazol-3-yl)-N1-((R)-1-(3-chlorophenyl)propyl)-N2-methyl-4-oxoazetidine-1,2-dicarboxamide] | < 10 | < 10 | 11 to 30 | > 100 |
| CC[C@@H](NC(=O)N1C(=O)[C@H](Cc2ccnc(N)c2)[C@H]1C(=O)N(C)c1ccnn1C)c1ccccc1 [Compound 1-92, (2S,3R)-3-((2-aminopyridin-4-yl)methyl)-N2-(1-methyl 1H-pyrazol-5-yl)-N1-((R)-1-phenylpropyl)-N2-methyl-4-oxoazetidine-1,2-dicarboxamide] | < 10 | < 10 | 31 to 50 | > 100 |
| CC[C@@H](NC(=O)N1C(=O)[C@H](Cc2cc(C)nc(N)c2)[C@H]1C(=O)N(C)c1nccn1C)c1cc(F)ccc1F [Compound 1-137, (2S,3R)-3-((2-amino-6-methylpyridin-4-yl)methyl)-N2-(1-methyl-1H-imidazol-2-yl)-N1-((R)-1-(2,5-difluorophenyl)propyl)-N2-methyl-4-oxoazetidine-1,2-dicarboxamide] | < 10 | < 10 | 11 to 30 | > 100 |
| CC[C@@H](NC(=O)N1C(=O)[C@H](Cc2cc(C)nc(N)c2)[C@H]1C(=O)N(C)c1ccnn1C)c1ccc(C)c(C)c1 [Compound 1-152, (2S,3R)-3-((2-amino-6-methylpyridin-4-yl)methyl)-N2-(1-methyl-1H-pyrazol-5-yl)-N1-((R)-1-(3,4-dimethylphenyl)propyl)-N2-methyl-4-oxoazetidine-1,2-dicarboxamide] | < 10 | < 10 | 11 to 30 | > 100 |
| CC[C@@H](NC(=O)N1C(=O)[C@H](Cc2cc(C)nc(N)c2)[C@H]1C(=O)N(C)c1ccnn1C)c1ccc(C)c(F)c1 [Compound 1-155, (2S,3R)-3-((2-amino-6-methylpyridin-4-yl)methyl)-N2-(1-methyl-1H-pyrazol-5-yl)-N1-((R)-1-(3-fluoro-4-methylphenyl)propyl)-N2-methyl-4-oxoazetidine-1,2-dicarboxamide] | < 10 | < 10 | 11 to 30 | > 100 |
| CC[C@@H](NC(=O)N1C(=O)[C@H](Cc2cc(C)nc(N)c2)[C@H]1C(=O)N(C)c1ccnn1C)c1ccc(F)c(F)c1 [Compound 1-158, (2S,3R)-3-((2-amino-6-methylpyridin-4-yl)methyl)-N2-(1-methyl-1H-pyrazol-5-yl)-N1-((R)-1-(3,4-difluorophenyl)propyl)-N2-methyl-4-oxoazetidine-1,2-dicarboxamide] | < 10 | < 10 | 11 to 30 | > 100 |
